Experimental data as given in ChEMBL document CHEMBL1157764, “Conserved high activity binding peptides are involved in adhesion of two detergent-resistant membrane-associated merozoite proteins to red blood cells during invasion” (J Med Chem, 2010).
Where a SMILES comes first, the peptide text is derived from it. [ ]: non-standard residue; d: D form. Ahp(2) = CCCCC[C@H](N)C(=O)O

Species: Homo sapiens
Experiment: Binding affinity to RBC membrane receptor in human RBCs assessed as specific binding activity measured as ratio of specifically bound peptide/added peptide by gamma counter

| Molecule | Activity |
| --- | --- |
| CC[C@H](C)[C@H](NC(=O)[C@@H](N)CCC(=O)O)C(=O)N[C@@H](CO)C(=O)N[C@@H](CCC(=O)O)C(=O)N[C@@H](CS)C(=O)N[C@H](C(=O)N[C@@H](CCC(=O)O)C(=O)N[C@@H](CO)C(=O)N[C@@H](CCC(=O)O)C(=O)N[C@@H](CCC(N)=O)C(=O)N[C@@H](CC(N)=O)C(=O)N[C@@H](CCC(=O)O)C(=O)N[C@H](C(=O)N[C@@H](CCCCN)C(=O)N[C@H](C(=O)N[C@@H](CO)C(=O)N[C@H](C(=O)N[C@H](C(=O)N[C@@H](CS)C(=O)N[C@@H](CC(C)C)C(=O)N[C@@H](Cc1ccc(O)cc1)C(=O)O)[C@@H](C)O)[C@@H](C)O)[C@@H](C)O)C(C)C)C(C)C (H-EISECVESEQNEVKTSTTCLY-OH) | > 2% |
| CC[C@H](C)[C@H](NC(=O)[C@H](Cc1ccc(O)cc1)NC(=O)[C@H](CCC(=O)O)NC(=O)[C@H](CO)NC(=O)[C@@H](NC(=O)[C@H](CC(=O)O)NC(=O)[C@H](CCCCN)NC(=O)[C@H](CC(C)C)NC(=O)[C@H](CCCCN)NC(=O)[C@@H](NC(=O)[C@H](CCC(=O)O)NC(=O)[C@H](CS)NC(=O)[C@H](Cc1ccccc1)NC(=O)[C@@H]1CCCN1C(=O)[C@H](CO)NC(=O)[C@@H](N)Cc1cnc[nH]1)[C@@H](C)CC)[C@@H](C)CC)C(=O)N[C@@H](CCCNC(=N)N)C(=O)N[C@@H](CCCCN)C(=O)N[C@@H](CCCCN)C(=O)N[C@@H](CS)C(=O)O (H-HSPFCEIKLKDISEYIRKKC-OH) | > 2% |
| CC[C@H](C)[C@H](N)C(=O)N[C@@H](Cc1cnc[nH]1)C(=O)N[C@@H](CCCCN)C(=O)N[C@@H](CCCNC(=N)N)C(=O)N[C@@H](CS)C(=O)N[C@@H](CC(N)=O)C(=O)N[C@@H](CC(=O)O)C(=O)N[C@@H](CC(=O)O)C(=O)N[C@H](C(=O)N[C@@H](CCC(=O)O)C(=O)N[C@@H](CCCCN)C(=O)N[C@@H](CCCCN)C(=O)N[C@@H](CS)C(=O)N[C@@H](CC(N)=O)C(=O)NCC(=O)N[C@@H](CC(N)=O)C(=O)N[C@@H](CC(N)=O)C(=O)N[C@@H](CCCCN)C(=O)N[C@@H](CS)C(=O)N[C@H](C(=O)N[C@@H](Cc1ccc(O)cc1)C(=O)O)[C@@H](C)CC)[C@@H](C)CC (H-IHKRCNDDIEKKCNGNNKCIY-OH) | > 2% |
| CC[C@H](C)[C@H](NC(=O)[C@H](CCC(=O)O)NC(=O)[C@H](CC(N)=O)NC(=O)[C@H](CC(N)=O)NC(=O)CNC(=O)[C@H](CC(N)=O)NC(=O)[C@H](CC(C)C)NC(=O)[C@H](CS)NC(=O)[C@H](CCC(N)=O)NC(=O)[C@@H](NC(=O)[C@H](CCC(=O)O)NC(=O)[C@H](CS)NC(=O)[C@H](Cc1cnc[nH]1)NC(=O)[C@H](CC(C)C)NC(=O)[C@@H](NC(=O)[C@H](Cc1ccc(O)cc1)NC(=O)[C@H](CC(C)C)NC(=O)[C@H](CC(N)=O)NC(=O)CNC(=O)[C@@H](N)CCC(N)=O)C(C)C)C(C)C)C(=O)O (H-QGNLYVLHCEVQCLNGNNEI-OH) | > 2% |
| CCCCC[C@H](NC(=O)[C@H](Cc1ccc(O)cc1)NC(=O)[C@@H](NC(=O)[C@H](CCCNC(=N)N)NC(=O)[C@H](CCCNC(=N)N)NC(=O)[C@H](CCC(N)=O)NC(=O)[C@@H]1CCCN1C(=O)[C@@H](NC(=O)[C@@H](NC(=O)[C@H](Cc1ccccc1)NC(=O)[C@@H](NC(=O)[C@H](CC(=O)O)NC(=O)[C@H](CC(N)=O)NC(=O)[C@H](CCC(=O)O)NC(=O)CNC(=O)[C@H](Cc1ccccc1)NC(=O)[C@H](CC(C)C)NC(=O)[C@@H](N)Cc1ccc(O)cc1)[C@@H](C)CC)C(C)C)C(C)C)[C@@H](C)CC)C(=O)N[C@H](C(=O)N[C@@H](CCC(=O)O)C(=O)O)[C@@H](C)O (H-YLFGENDIFVVPQRRIY[Ahp(2)]TE-OH) | > 2% |
| H-DEKHAENEENVEQIETDSNVY-OH | > 2% |
| H-DEVFGSQSSNFNIFDSNNTDY-OH | > 2% |
| H-DGLNCFDNVYIKNKTLVKIE-OH | > 2% |
| H-EDGEKENKHKSSETTNETVTY-OH | > 2% |
| H-EEIGDESTDSSSMEIQDSTSY-OH | > 2% |
| H-EEQENEDSTDAEAIDKEEVEY-OH | > 2% |
| H-EKKDVKVSGNNNIAVVYSIF-OH | > 2% |
| H-FEVRLPKDIKVTENCFRYSF-OH | > 2% |
| H-GTAMESLLYLNNNNVKKLID-OH | > 2% |
| H-ILYLEKNNLFNTQASCIKSY-OH | > 2% |
| H-ISLLLNKKYDSFEIKDVLED-OH | > 2% |
| H-ITIEELFKSAIKTEEMKDNKY-OH | < 2% |
| H-KETQEKSDQEPSQNIQEDNSY-OH | > 2% |
| H-KYILVCENHSQNYINVVDQE-OH | > 2% |
| H-LFETFDPQYLNTEFNGVSHY-OH | > 2% |
| H-LGYDNCTIEVNKTVNGIDWN-OH | > 2% |
| H-LNEDLVLLYNDFPFDNGMIS-OH | > 2% |
| H-MAVYNALYEKAQSYNLQKLF-OH | > 2% |
| H-MFAVNLKICIFLSLVSFLLQY-OH | > 2% |
| H-NDSNDFLKKYAIMGNSFDDG-OH | > 2% |

| Molecule | Activity |
| --- | --- |
| H-NEDNKDLEHGSSNDVNNNTDY-OH | > 2% |
| H-NEQDENVKGMSSSQEMNSNNY-OH | > 2% |
| H-NKTDNGSSFFFAMSNALLVIY-OH | > 2% |
| H-NNDDQDEQGNDGDVTSSMNKY-OH | > 2% |
| H-NNEKVVPLSNEPQEIIQPPIY-OH | > 2% |
| H-NYKSTYCVLSNNYRIVVEFD-OH | > 2% |
| H-NYYISPFYDENSIKQEINKK-OH | > 2% |
| H-QEKLNTTDPSKAYIYGANII-OH | > 2% |
| H-QNNEQEQPKQDDQLLNNNNDY-OH | > 2% |
| H-RYNEMKRDANPDVYYIYLMD-OH | > 2% |
| H-SDIFFKYNPSENIMDHQEMV-OH | > 2% |
| H-SEEANDENKDNMQTTTDEGTY-OH | > 2% |
| H-SKINKELAHRTALFNKLADNY-OH | > 2% |
| H-SPNYELSLNSLSDSQNVDIF-OH | > 2% |
| H-TEEKGKDEQKKDEQKEQDEEY-OH | > 2% |
| H-TLDIEKIEDINLEEVKMSLLY-OH | > 2% |
| H-TLVNNKENKEFVLKEKSSLTY-OH | > 2% |
| H-TNTTPAVYSGSLLSMNNDFE-OH | > 2% |
| H-TSEEKMILIFKCDNKFYITK-OH | > 2% |
| H-TYHLAIVKNEDKLQLAFTYD-OH | > 2% |
| H-VHFMAGGQKYKYEGIDLTDS-OH | > 2% |
| H-VSKFDNNKTIGFVCPVKSSY-OH | > 2% |
| H-YGKEFKWSDPKVIDVSNVIG-OH | > 2% |
| H-YMREIRLLGKCMLSFDEGNN-OH | > 2% |
